In US9493466B2, “Treatment of cancer with TOR kinase inhibitors” (Signal Pharmaceuticals, LLC, priority 2011, dated 2016):

Legend:
NCI-H23 = test: Cell viability assay for NSCLC lines; format: cell-based, human; details: NCI-H23, 3 days
Protocol: Cell Viability Assay for NSCLC Lines. Cell viability was assessed using the Cell Titer-Glo Luminescent Cell Viability from Promega. The assay is a homogenous method of determining the number of viable cells in culture based on quantitation of the adenosine triphosphate (ATP) present, an indicator of metabolically active cells. The homogenous assay procedure involves adding the single reagent (CellTiter-Glo Reagent) directly to cells cultured in serum-supplemented medium. Cells were plated into a 96-well flat bottom plate (Costar Catalog Number 33595) at densities that were previously optimized for each cell line. The cells were incubated overnight in 5% CO2 at 37° C. The following day, compound dilutions were prepared and all concentrations were assayed in triplicate. The cells were incubated with Compound 1 (0.03 μM, 0.1 μM, 0.3 μM, 1 μM, 3 μM, 10 μM and 30 μM for NSCLC cells) in 5% CO2 at 37° C. for 3 days. After a 3-day incubation period, 100 μL of CellTiter-Glo reagent was added to each well for 2 minutes with shaking and further incubated for 10 minutes (no shaking) at room temperature to stabilize the signal. The luminescence was measured on the VICTOR X2 multilabel plate reader. The percent growth inhibition was calculated using the DMSO control in the same plate (no compound) response as 100% cell growth. The average values from triplicates were plotted to obtain IC50 values using software XLfit from IDBS. The formula used for determining IC50 in XLfit was model number 205, which utilizes a 4 Parameter Logistic Model or Sigmoidal Dose-Response Model to calculate the IC50 values. All IC50 values are reported as an average from either two independent experiments or a single experiment.

[1] = test system: Hep3B2.1-7 human liver tumor cells; test: Hepatocellular carcinoma (Hep3B2.1-7) orthotopic study; format: in vivo, mice; details: 10 mg/kg daily p.o., three weeks; FIGS. 17-18
Protocol: Hepatocellular Carcinoma (Hep3B2.1-7) Orthotopic Study. Hep3B2.1-7 human liver tumor cells were cultured in RPMI 1640 cell culture medium, supplemented with 10% FBS, 1% Glutamax and 1% penicillin-streptomycin. The cells were harvested by trypsinization, washed twice in HBSS and counted. The cells were then resuspended in HBSS:Matrigel™ (1:1, v/v) to a final concentration of 2×10^8 cells/mL. Prior to inoculation (while the animal was anesthetized via injectable Ketamil (10 mg/mL)/Xylazil (0.9 mg/mL) anesthetic), the skin on the incision site was swabbed with alcohol and an incision was made into the skin directly over the liver to expose the main lobe of the liver. The needle was introduced into the main lobe of the liver, where 2×10^6 Hep3B2.1-7 cells (in 10 μL with 50% Matrigel™) were discharged. Fourteen days post-inoculation, a satellite group of mice were culled to assess the presence of tumors in the liver.
Compound 1 powder was suspended in 0.5% CMC/0.25% Tween80 to achieve a stock concentration of 2 mg/mL. […]
The Vehicle Control and Test Articles were administered in a dosing volume of 5 mL/kg. Each animal's body weight was measured immediately prior to dosing. The volume of dosing solution administered to each animal was calculated and adjusted based on individual body weight. […]

HCC = test: Phase 1/2 study Part B: tumor response, HCC; format: in vivo, human; details: 14 evaluable patients
Excerpt: (§1) In Part B, subjects may start Compound 1 at the MTD and/or a lower dose level based on safety, PK and PD data from Part A. Approximately 150 subjects will be treated and evaluated for safety and preliminary antitumor activity after every two cycles of therapy. Tumor types include non-small cell lung cancer (NSCLC), glioblastoma multiforme (GBM), hepatocellular carcinoma (HCC), gastrointestinal neuroendocrine tumor of non-pancreatic origin (NET), diffuse large B-cell lymphoma (DLBCL), multiple myeloma (MM), and hormone receptor positive breast cancer (HRPBC). Up to 20 subjects will be enrolled in each tumor type.
Subjects will be evaluated for efficacy every 2 cycles through cycle 6 and every 3 cycles thereafter. The primary efficacy variable is response. Tumor assessments, including imaging (CT, MRI and/or PET) of the chest and abdomen and other sites as appropriate, will be performed during Screening. Subjects with brain lesions will also have brain scans at Screening and during follow-up tumor assessments. After Screening, tumor assessments (for all tumors except multiple myeloma) will be performed on completion of Cycles 2, 4 and 6 (i.e., on Cycles 3, 5 and 7/Day 1±7 days) and then every 3 months thereafter (e.g., Cycle 10 and 13/Day 1±7 days). Tumor assessment (for multiple myeloma and only NHL/DLBCL with known or suspected marrow involvement) (bone marrow aspiration and biopsy, with PD biomarker analysis, cytogenetic analysis if abnormally present at Screening) will be performed on completion of Cycles 4, 8, 12 and 16 only (i.e., on Cycles 5, 9, 13 and 17/Day 1±7 days). Cytogenetics need not be repeated if normal at Screening. […] Subjects will be evaluated for tumor response on completion of Cycle 2, 4, 6, and so on. […]
(§2) For Part B, efficacy variables to be analyzed include tumor response at the end of treatment, the proportion of subject alive and progression-free, and duration of response. […]

GBM = test: Phase 1/2 study Part B: tumor response, GBM; format: in vivo, human; details: 10 evaluable GBM patients
Excerpt: as §1
Subjects will be evaluated for efficacy every 2 cycles through cycle 6 and every 3 cycles thereafter. The primary efficacy variable is response. Tumor assessments, including imaging (CT, MRI and/or PET) of the chest and abdomen and other sites as appropriate, will be performed during Screening. Subjects with brain lesions will also have brain scans at Screening and during follow-up tumor assessments. […] Subjects will be evaluated for tumor response on completion of Cycle 2, 4, 6, and so on. […]
as §2

CO[C@H]1CC[C@H](N2C(=O)CNc3ncc(-c4ccc(C(C)(C)O)nc4)nc32)CC1 [Compound 1, 7-(6-(2-hydroxypropan-2-yl)pyridin-3-yl)-1-((1r,4r)-4-methoxycyclohexyl)-3,4-dihydropyrazino-[2,3-b]pyrazin-2(1H)-one]
IC50 (NCI-H23): 2210 nM
tumor growth inhibition [1]: significant tumor growth inhibition
best target lesions responses (reduction) (HCC): up to 47%
patients meeting Partial Response (RECIST 1.1) (HCC): 2 patients
patients meeting at least Stable Disease (RECIST 1.1) (HCC): 5 patients
clinical activity, defined as 6-month Progression-Free Survival (GBM): No signs of clinical activity
